{"source": "patent US20080214671A1", "about": "“Dicarbonic Acid Derivatives, Metastasis Inhibitors and Agents Increasing Chemotherapeutic Activity of Anti-Tumor Preparations, Method for Enhancing the Cytostatic Efficiency and Metastasis Process Inhibiting Method” (priority 2005, published 2008)", "format_in_all_cases": "in vivo", "key": {"Leukemia P388": {"tested_on": "Leukemia P388", "assay": "P388 leukemia in BDF1 mice, combined therapy with cytostatic", "description": "(§1) An experimental study of the anti-tumor activity of the FB-13 preparation as a chemosensitizer was carried out on tumor models of P388 leukemia and Lewis metastatic lung carcinoma, which can be seen in Examples 5 and 6.\nLeukemia P388 was intraperitoneally inoculated to hybrid mice BDF1. The inoculum was 10^6 leukemic cells in 0.2 ml normal saline. The preparation was administered at a dose 10 mg/kg, cisplatin—at a dose 2 mg/kg on days 1, 3, 5 and 7 post transplantation. The number of cured (surviving for 60 days) animals served as an assessment criterion.\nSimilar studies were carried out with the preparation FB-14 (50 mg/kg) and cyclophosphane (60 mg/kg).\nFurthermore, a significant increase in the average life span (ILS) of the animals as compared to the control group is shown in FIG. 4b."}, "Lewis lung carcinoma": {"tested_on": "Lewis lung carcinoma", "assay": "Lewis lung carcinoma in BDF1 mice, metastasis inhibition in the lungs", "description": "as §1\nLewis lung carcinoma was subcutaneously inoculated to hybrid mice BDF1. The inoculum was 5×10^6 tumor cells. The combined effect of FB-13 and cisplatin was investigated. The index of metastasis inhibition (IMI in %) in the lungs served as the assessment criterion. When cisplatin was administered alone, IMI was 50%, in combined administration with FB-13, it was 100% (FIG. 2)."}, "B-16 melanoma": {"tested_on": "B-16 melanoma", "assay": "B-16 melanoma in BDF1 mice, metastasis inhibition in the lungs", "description": "Experimental B-16 melanoma was subcutaneously engrafted to hybrid mice BDF1. The inoculum was 5×10^6 tumor cells. The combined effect of FB-13 and cisplatin was investigated. The index of metastasis inhibition (IMI in %) in the lungs served as the assessment criterion. When cisplatin was administered alone, IMI was 52%, in combined administration with FB-13, it was 100%. Similar studies were carried out with hydroxamic acids based on oxalic acid (the compound L215) and based on tartaric acid (the compound L221). Tests for acute toxicity were carried out in the group of experimental oncology of the IPKhF of the RAS by intraperitoneal administration of the preparations in water to BDF1 mice. […] The use of these compounds at the minimum doses in combination with the minimum doses of cytostatics (when neither of the preparations taken alone provides a therapeutic effect) makes complete inhibition of the metastasis process in experimental B-16 melanoma or Lewis lung carcinoma possible. Furthermore, the use of dicarbonic acid oxyamides as agents for enhancing the anti-tumor effect makes it possible in a combination with the minimum amounts of oxyamide and a cytostatic (a unit dose of cytostatics being 4 times lower than a therapeutic dose) to enhance the efficacy in the treatment of P-388 leukemia (survival rate of the animals is 100%)."}, "[1]": {"conditions": "combined administration of FB-13 with cisplatin"}, "[2]": {"conditions": "cisplatin administered alone, s.c. inoculum 5x10^6 cells"}}}
{"smiles": "NC(=O)C(N)=O.O=C(O)/C=C\\C(=O)O", "note": "[FB-13, Maleic acid monooxamide]", "values": [{"measurement": "number of cured (surviving for 60 days) animals", "setting": "Leukemia P388; combined administration: FB-13 10 mg/kg and cisplatin 2 mg/kg on days 1, 3, 5 and 7", "value": 100, "unit": "%"}, {"measurement": "index of metastasis inhibition (IMI) in the lungs", "setting": "Lewis lung carcinoma; [1]", "value": 100, "unit": "%"}, {"measurement": "index of metastasis inhibition (IMI) in the lungs", "setting": "B-16 melanoma; [1]", "value": 100, "unit": "%"}]}
{"smiles": "N.N.[Cl][Pt][Cl]", "note": "[cisplatin]", "values": [{"measurement": "number of cured (surviving for 60 days) animals", "setting": "Leukemia P388; only cisplatin, 2 mg/kg on days 1, 3, 5 and 7 post transplantation, i.p. inoculum 10^6 cells", "value": 66.7, "unit": "%"}, {"measurement": "index of metastasis inhibition (IMI) in the lungs", "setting": "Lewis lung carcinoma; [2]", "value": 50, "unit": "%"}, {"measurement": "index of metastasis inhibition (IMI) in the lungs", "setting": "B-16 melanoma; [2]", "value": 52, "unit": "%"}]}
